Measured values reported in ChEMBL document CHEMBL1133989, “Which aminoglycoside ring is most important for binding? A hydropathic analysis of gentamicin, paromomycin, and analogues” (Bioorg Med Chem Lett, 2001).

Tested on: Ribosomal RNA A-site
Experiment: Binding affinity of aminoglycoside to 16S ribosomal RNA A-site in Escherichia coli
Assay type: nucleic-acid assay

Row | Structure (SMILES) | Kd
1 | NCC1OC(OC2C(N)CC(N)C(O)C2OC2OC(CO)C(OC3OC(CN)C(O)C(O)C3O)C2O)C(N)C(O)C1O (stereo not drawn) | 700 nM
2 | NCCC1C(CO)OC(OC2C(O)C(N)CC(N)C2OC2OC(CN)C(O)C(O)C2N)C1O (stereo not drawn) | 1700 nM
3 | NCCCNCC[C@H]1[C@@H](O)[C@H](O[C@H]2[C@@H](O)[C@H](N)C[C@H](N)[C@H]2O[C@H]2O[C@H](CN)[C@H](O)[C@H](O)[C@H]2N)O[C@@H]1CO | 260 nM
4 | NC[C@H]1O[C@H](O[C@H]2[C@@H](O[C@@H]3O[C@H](CO)[C@@H](O[C@@H]4O[C@H](CO)[C@H](O)[C@H](O)[C@H]4O)[C@H]3O)[C@@H](O)[C@H](N)C[C@@H]2N)[C@H](N)[C@H](O)[C@@H]1O | 28000 nM
5 | NC[C@H]1O[C@H](O[C@H]2[C@H](O)[C@@H](O[C@H]3O[C@H](CO)[C@@H](O)[C@H](N)[C@H]3O)[C@H](N)C[C@@H]2N)[C@H](N)[C@@H](O)[C@@H]1O [BEKANAMYCIN] | 1400 nM
6 | NCCC(O)C(=O)N[C@@H]1C[C@H](N)[C@@H](O[C@H]2O[C@H](CN)[C@@H](O)[C@H](O)[C@H]2N)[C@@H](O[C@@H]2O[C@H](CO)[C@@H](O)[C@H]2O)[C@H]1O (stereo partly drawn) [BUTIROSIN B] | 27000 nM
7 | NC[C@@H]1O[C@H](O[C@H]2[C@@H](O)[C@H](O[C@@H]3[C@@H](O)[C@H](N)C[C@H](N)[C@H]3O[C@H]3O[C@H](CN)[C@@H](O)[C@H](O)[C@H]3N)O[C@@H]2CO)[C@H](N)[C@@H](O)[C@@H]1O [FRAMYCETIN] | 19 nM
8 | NC[C@@H]1O[C@@H](O[C@H]2[C@H](O)[C@@H](O[C@H]3O[C@H](CO)[C@@H](O)[C@H](N)[C@H]3O)[C@H](N)C[C@@H]2N)[C@@H](O)[C@H](O)[C@H]1O [KANAMYCIN A] | 18000 nM
9 | NC[C@H]1O[C@H](O[C@H]2[C@H](O)[C@@H](O)[C@H](N)C[C@@H]2N)[C@H](N)[C@@H](O)[C@@H]1O [NEAMINE] | 7800 nM
10 | N[C@H]1[C@@H](O[C@H]2[C@H](O)[C@@H](O)[C@H](N)C[C@@H]2N)O[C@H](CO)[C@@H](O)[C@@H]1O [PAROMAMINE] | < 100000 nM
11 | NC[C@@H]1O[C@H](O[C@H]2[C@@H](O)[C@H](O[C@@H]3[C@@H](O)[C@H](N)C[C@H](N)[C@H]3O[C@H]3O[C@H](CO)[C@@H](O)[C@H](O)[C@H]3N)O[C@@H]2CO)[C@H](N)[C@@H](O)[C@@H]1O [PAROMOMYCIN] | 200 nM
12 | NC[C@H]1O[C@H](O[C@H]2[C@H](O[C@@H]3O[C@H](CO)[C@@H](O)[C@H]3O)[C@@H](O)[C@H](N)C[C@@H]2N)[C@H](N)[C@@H](O)[C@@H]1O [RIBOSTAMYCIN] | 25000 nM
13 | NC[C@H]1O[C@H](O[C@H]2[C@H](O)[C@@H](O[C@H]3O[C@H](CO)[C@@H](O)[C@H](N)[C@H]3O)[C@H](N)C[C@@H]2N)[C@H](N)C[C@@H]1O [TOBRAMYCIN] | 1500 nM
